Assay results as given in patent US10918713B2, “Epitopes from allergen proteins and methods and uses for immune response modulation” (LA JOLLA INSTITUTE FOR ALLERGY AND IMMUNOLOGY, priority 2012, dated 2021).
“And” between values parts separate entries of the source, which are not always exact repeats. Equal entries are not always repeated.

Legend:
[1] = tested on: PBMC from allergic donors; assay: IL-5 ELISPOT with extract-stimulated short-term lines; type: cell-based, human; details: positive donor/peptide response
Method: (§1) Spots were counted by computer-assisted image analysis (Zeiss, KS-ELISPOT reader, Munich, Germany).
(§2) Each assay was performed in triplicate. The level of statistical significance was determined with a Student's t-test using the mean of triplicate values of the response against relevant pools or individual peptides versus the response against the DMSO control.

[2] = tested on: PBMC from allergic donors; assay: Dual ELISPOT, total IL-5 and IFN-γ response (SFC); type: cell-based, human; details: sum of IFNg and IL-5
Method: as §1, §2

| Compound | Response (SFC/10^6) IL-5 ([1]; one donor per table line) | Response (SFC/10^6) Total ([2]; one donor per table line) | Response (SFC/10^6) IL-5 ([1]; each table line is one donor) | Response (SFC/10^6) Total ([2]; each table line is one donor) |
| --- | --- | --- | --- | --- |
| 3324.0972 (LKAATAFMLAWNYGV) | 757 SFC/10^6 | 757 SFC/10^6 | – | – |
| 3324.0356 (GLHLGGIKYMVIQGE) | 440 SFC/10^6 | 440 SFC/10^6 | – | – |
| 3324.1630 (TKLDDEIKSWLAFAA) | – | – | 87 SFC/10^6 | 87 SFC/10^6 |
| 3324.1606 (KIAAEIAIALLFLRD) | – | – | 90 SFC/10^6 | 90 SFC/10^6 |
| 3324.0612 (TISNNHFFNHHKVML) | 542 SFC/10^6 | 542 SFC/10^6 | – | – |
| 3324.0991 (PRVMSSYFWNQIIKD) | 152 SFC/10^6 | 152 SFC/10^6 | – | – |
| CC[C@H](C)[C@H](NC(=O)[C@H](CO)NC(=O)[C@H](CC(C)C)NC(=O)[C@H](C)NC(=O)[C@H](CC(C)C)NC(=O)[C@@H](N)CC(N)=O)C(=O)N[C@@H](CCCCN)C(=O)N[C@@H](Cc1ccc(O)cc1)C(=O)N[C@@H](CC(N)=O)C(=O)N[C@@H](CCCCN)C(=O)N[C@@H](CCC(=O)O)C(=O)NCC(=O)N[C@@H](CC(=O)O)C(=O)N[C@@H](CO)C(=O)N[C@@H](CCSC)C(=O)O [3324.0658] | 917 SFC/10^6 and 853 SFC/10^6 | 917 SFC/10^6 and 853 SFC/10^6 | – | – |
| 3324.1594 (SDYFVGANLIVSNSA) | – | – | 920 SFC/10^6 | 920 SFC/10^6 |
| 3324.0621 (MRKVSHVILHGLHIH) | 642 SFC/10^6 | 642 SFC/10^6 | – | – |
| 3324.1134 (VALFAVFLGSAHGIA) | 208 SFC/10^6 | 208 SFC/10^6 | – | – |
| 3324.1191 (DKFTVFESAFNKALN) | – | – | 97 SFC/10^6 | 97 SFC/10^6 |
| CC[C@H](C)[C@H](NC(=O)[C@H](CC(N)=O)NC(=O)[C@H](CCSC)NC(=O)[C@@H](N)CC(N)=O)C(=O)N[C@@H](CCCCN)C(=O)N[C@@H](CC(C)C)C(=O)N[C@@H](CCCCN)C(=O)N[C@@H](CCSC)C(=O)N1CCC[C@H]1C(=O)N[C@@H](CC(C)C)C(=O)N[C@@H](Cc1ccc(O)cc1)C(=O)N[C@H](C(=O)N[C@@H](C)C(=O)NCC(=O)N[C@@H](Cc1c[nH]cn1)C(=O)O)C(C)C [3324.0624] | 3147 SFC/10^6 | 3147 SFC/10^6 | – | – |
| 3324.1186 (TNKAFVEGLASGYAD) | – | – | 287 SFC/10^6 | 287 SFC/10^6 |
| 3324.0364 (LSRALNLLGLETDLS) | 167 SFC/10^6 | 167 SFC/10^6 | – | – |
| 3324.1178 (EVKYTVSETALKKAV) | – | – | 333 SFC/10^6 | 333 SFC/10^6 |
| 3324.1601 (GANLIVSNSAPRPDG) | – | – | 147 SFC/10^6 | 147 SFC/10^6 |
| 3324.0605 (HFFNHHKVMLLGHDD) | 992 SFC/10^6 | 992 SFC/10^6 | – | – |
| 3324.0348 (RAVESYLLAHSDAYN) | 293 SFC/10^6 | 293 SFC/10^6 | – | – |
| CC[C@H](C)[C@H](NC(=O)[C@H](C)NC(=O)[C@@H](NC(=O)[C@H](Cc1ccccc1)NC(=O)[C@H](C)NC(=O)[C@H](CCCNC(=N)N)NC(=O)[C@H](CC(N)=O)NC(=O)CNC(=O)[C@H](CCCNC(=N)N)NC(=O)[C@@H](N)CO)[C@@H](C)CC)C(=O)N[C@@H](CC(N)=O)C(=O)N[C@@H](CC(C)C)C(=O)N[C@@H](CCC(N)=O)C(=O)N[C@@H](CCCCN)C(=O)N[C@@H](CC(N)=O)C(=O)O [3324.0974] | 940 SFC/10^6 | 940 SFC/10^6 | – | – |
| 3324.1183 (LKKAVTAMSEAEKEA) | – | – | 128 SFC/10^6 | 128 SFC/10^6 |
| 3324.0992 (DALVMIDSHDLRVGH) | 290 SFC/10^6 | 290 SFC/10^6 | – | – |
| 3324.0993 (VKFRMIAGQEPVHNW) | 92 SFC/10^6 | 92 SFC/10^6 | – | – |
| CC[C@H](C)[C@H](NC(=O)[C@H](C)NC(=O)[C@@H](NC(=O)[C@H](Cc1ccccc1)NC(=O)[C@H](C)NC(=O)[C@H](CCCNC(=N)N)NC(=O)[C@H](CC(N)=O)NC(=O)CNC(=O)[C@H](CCCNC(=N)N)NC(=O)[C@H](CO)NC(=O)[C@H](Cc1ccccc1)NC(=O)[C@H](C)NC(=O)[C@@H](NC(=O)[C@H](CCC(N)=O)NC(=O)[C@@H](N)Cc1ccc(O)cc1)[C@@H](C)CC)[C@@H](C)CC)C(=O)O [3324.0980] | 177 SFC/10^6 and 380 SFC/10^6 | 177 SFC/10^6 and 380 SFC/10^6 | – | – |
| 3324.0979 (PDDLRSIYSRLHNLN) | 177 SFC/10^6 | 177 SFC/10^6 | – | – |
| 3324.0350 (DHTNFKYSYSVIEGG) | 413 SFC/10^6 | 413 SFC/10^6 | – | – |
| 3324.0940 (QQYDIKYTWNVPKIA) | 1333 SFC/10^6 | 1333 SFC/10^6 | – | – |

| Compound | Response (SFC/10^6) IL-5 ([1]; one donor per table line) | Response (SFC/10^6) Total ([2]; one donor per table line) | Response (SFC/10^6) IL-5 ([1]; each table line is one donor) | Response (SFC/10^6) Total ([2]; each table line is one donor) |
| --- | --- | --- | --- | --- |
| 3324.1602 (RTIFFDAYLGTSYVI) | – | – | 433 SFC/10^6 | 433 SFC/10^6 |
| 3324.1632 (VIAELKAAGASTIQF) | – | – | 313 SFC/10^6 | 313 SFC/10^6 |
| 3324.1547 (KYMVIQGEPGAVIRG) | 63 SFC/10^6 | 63 SFC/10^6 | – | – |
| 3324.1609 (SFGIILLQLLTARPP) | – | – | 103 SFC/10^6 | 103 SFC/10^6 |
| 3324.0998 (FDFLLMERIHEQIKK) | 143 SFC/10^6 | 143 SFC/10^6 | – | – |
| 3324.0355 (DGSVWAQSSSFPQFK) | 1953 SFC/10^6 | 1953 SFC/10^6 | – | – |
| 3324.1608 (IAIALLFLRDAKPEP) | – | – | 97 SFC/10^6 | 97 SFC/10^6 |
| CC[C@H](C)[C@H](N)C(=O)N[C@@H](CCC(=O)O)C(=O)N[C@@H](Cc1ccccc1)C(=O)N[C@@H](CCCNC(=N)N)C(=O)N[C@@H](Cc1ccccc1)C(=O)N[C@@H](Cc1ccc(O)cc1)C(=O)N[C@@H](CCCCN)C(=O)N[C@@H](CCC(=O)O)C(=O)N[C@H](C(=O)N[C@H](C(=O)N[C@@H](CC(N)=O)C(=O)N[C@H](C(=O)N[C@@H](Cc1ccccc1)C(=O)N[C@@H](CCCNC(=N)N)C(=O)NCC(=O)O)C(C)C)[C@@H](C)O)[C@@H](C)CC [3324.0976] | 153 SFC/10^6 and 610 SFC/10^6 | 153 SFC/10^6 and 610 SFC/10^6 | – | – |
| 3324.0835 (QTHSAIAVIIGIKDL) | 317 SFC/10^6 | 317 SFC/10^6 | – | – |
| 3324.1552 (HSRNLINELSERMAG) | – | – | 118 SFC/10^6 and 190 SFC/10^6 and 57 SFC/10^6 | 118 SFC/10^6 and 190 SFC/10^6 and 57 SFC/10^6 |
| 3324.1640 (VTAFGFDLVRGTKTL) | – | – | 73 SFC/10^6 | 73 SFC/10^6 |
| CC[C@H](C)[C@H](NC(=O)[C@H](Cc1c[nH]cn1)NC(=O)[C@H](Cc1ccc(O)cc1)NC(=O)[C@H](C)NC(=O)[C@@H](NC(=O)[C@H](Cc1ccccc1)NC(=O)[C@H](C)NC(=O)[C@H](CC(=O)O)NC(=O)[C@@H](N)Cc1ccccc1)C(C)C)C(=O)NCC(=O)N[C@@H](C)C(=O)N[C@@H](CCCNC(=N)N)C(=O)N[C@H](C(=O)N[C@H](C(=O)N[C@@H](CO)C(=O)O)C(C)C)[C@@H](C)CC [3324.0971] | 187 SFC/10^6 | 187 SFC/10^6 | – | – |
| 3324.0622 (DKSMKVTVAFNQFGP) | 102 SFC/10^6 | 102 SFC/10^6 | – | – |
| CC[C@H](C)[C@H](N)C(=O)N[C@@H](CCCCN)C(=O)N[C@@H](CO)C(=O)N[C@@H](CC(=O)O)C(=O)N[C@@H](CCCCN)C(=O)N1CCC[C@H]1C(=O)N[C@@H](CC(C)C)C(=O)N[C@@H](CCCCN)C(=O)NCC(=O)N1CCC[C@H]1C(=O)N[C@@H](Cc1ccccc1)C(=O)N[C@@H](CC(N)=O)C(=O)N[C@@H](Cc1ccccc1)C(=O)N[C@@H](CCCNC(=N)N)C(=O)N[C@@H](Cc1ccccc1)C(=O)O [3324.1140] | – | – | 317 SFC/10^6 | 317 SFC/10^6 |
| 3324.0619 (GPCLFMRKVSHVILH) | 687 SFC/10^6 | 687 SFC/10^6 | – | – |
| 3324.1562 (DKFTVFEAAFNNAIK) | – | – | 183 SFC/10^6 | 183 SFC/10^6 |
| 3324.1179 (FTVFENTFNNAIKVS) | – | – | 87 SFC/10^6 | 87 SFC/10^6 |
| 3324.1599 (EKVKIERLHPYITLY) | – | – | 260 SFC/10^6 | 260 SFC/10^6 |
| 3324.0351 (YETETTSVIPAARLF) | 403 SFC/10^6 | 403 SFC/10^6 | – | – |
| CC[C@H](C)[C@H](NC(=O)[C@H](Cc1ccc(O)cc1)NC(=O)[C@H](CC(C)C)NC(=O)[C@@H]1CCCN1C(=O)[C@H](CCSC)NC(=O)[C@H](CC(N)=O)NC(=O)[C@H](CC(C)C)NC(=O)[C@H](CCCCN)NC(=O)[C@@H](NC(=O)[C@H](CC(N)=O)NC(=O)[C@H](CC(C)C)NC(=O)[C@@H](N)CC(N)=O)[C@@H](C)CC)C(=O)N[C@@H](C)C(=O)NCC(=O)N[C@@H](CC(N)=O)C(=O)O [3324.0523] | 1708 SFC/10^6 | 1708 SFC/10^6 | – | – |
| 3324.0529 (MAAVAFLALQLIVMA) | 283 SFC/10^6 | 283 SFC/10^6 | – | – |
| 3324.0827 (DNGYGYFAANIDLMM) | 53 SFC/10^6 | 53 SFC/10^6 | – | – |
| 3324.0349 (TSVIPAARLFKAFFL) | 427 SFC/10^6 | 427 SFC/10^6 | – | – |
| 3324.1549 (SSSFPQFKSEEITNI) | 77 SFC/10^6 | 77 SFC/10^6 | – | – |
| 3324.0964 (GGEKISVAKIFAHEK) | 137 SFC/10^6 | 137 SFC/10^6 | – | – |
